Results: patent US9278962B2 (Cytokinetics, Inc., priority 2011, dated 2016)

Test system: rabbit skeletal myofibrils (approximately 90% fast fibers)
Experiment: Activation of fast skeletal myofibrils (PUMA coupled-enzyme ATPase assay, AC1.4)
Type: biochemical
Details: Table 2; concentration at which the compound increased enzymatic activity by 40%; calcium at pCa25

**Q.** Which “Mean AC1.4” value does the source give for CC(C)(CNc1nc(CCC(=O)N2CC[C@H](O)C2)ns1)c1ccc(F)cc1 [1-((3S)-3-hydroxypyrrolidinyl)-3-(5-{[2-(4-fluorophenyl)-2-methylpropyl]amino}(1,2,4-thiadiazol-3-yl))propan-1-one] here?
**A.** Its value is “D (D=>20 uM)”.
